{
  "source": "patent US8946478B2",
  "about": "“Benzamide derivative with anticancer activity and preparation method and use thereof” (Zhejiang Hisun Pharmaceutical Co., Ltd., priority 2010, dated 2015)",
  "tested_on": "human cancer xenograft tumor models",
  "experiment": "In vivo efficacy screening, summary over the xenograft models",
  "design": "species or system BALB/C nude mice",
  "settings": "30 mg/kg I-1 against 80 mg/kg BSI-201, nude mouse xenografts",
  "text": "5-6 week old female or male BALB/C nude mice, about 18-20 g in weight, were raised. Human cancer xenograft tumor model in nude mouse was established by the following steps: human colon cancer cell strains HCT-116 and Colo205, human breast cancer cell strain MDA-MB435, human prostate cancer cell strain BXPC-3, human ovarian cancer cell strain SKOV-3, human lung cancer cell strain A549, human pancreatic cancer cell strain PANC-1, and human uterine cancer cell strain Hela were all obtained from ATCC. […] 0.2 mL cell suspension was drawn directly by a syringe with […] and subcutaneously transplanted into the scapula part of the rear part of nude mouse's left armpit, 2×10^6/0.2 mL for each mouse, and the tumor volume was measured every 2-3 days. […]\nThe mice were randomly divided into 5 groups, including negative control group (solvent), positive control group (BSI-201, 80 mg/kg), and three treatment groups with high, middle and low doses (40 mg/kg, 30 mg/kg, and 20 mg/kg respectively, wherein the high dose was below the MTD), and there were 8 nude mice in each group except that there are 16 ones in the negative control group. They were administered by intraperitoneal injection once a day for 3 consecutive weeks, during which body weight and tumor volume of the animals were detected and the death number of animals was recorded every 2 days. […]",
  "data": [
    {"smiles": "C#Cc1ccc(C(N)=O)cc1[N+](=O)[O-]", "note": "[Compound I-1, 4-ethynyl-3-nitrobenzamide]", "values": [
      {"measurement": "in vivo efficacy compared with BSI-201 (in words)", "result": "equivalent efficacy to that of 80 mg/kg BSI-201"}
    ]}
  ]
}
